Values quoted from earlier work in PMC11599114 (Viruses, 2024).
Where two headings read alike, the source gives them in different places.

Tests used:
[1] = tested on: SARS-CoV-2; parameters: method as in 3 sources; settings: SARS-CoV-2 infection, Vero E6
[2] = tested on: HSV-1; settings: HSV-1, Vero
[3] = tested on: HSV-2; settings: HSV-2, Vero
[4] = tested on: SARS-CoV-2; settings: SARS-CoV-2, Vero
[5] = tested on: HPIV-3; settings: HPIV-3, Vero
[6] = tested on: HCoV-229E; settings: Vero
[7] = tested on: HCoV-OC43; settings: HCoV-OC43, Vero
[8] = tested on: SARS-CoV
[9] = tested on: influenza A virus(H1N1); parameters: method as in 2 sources
[10] = tested on: influenza A virus(H3N2); parameters: method as in 2 sources
[11] = tested on: SARS coronavirus
[12] = tested on: Dengue virus 2(DENV2); parameters: method as in ref 35663971; settings: DENV2, Huh7, at 10 μM
[13] = tested on: HSV; parameters: method as in ref 35663971; settings: Huh7, at 10 μM
[14] = tested on: SARS-CoV-2; parameters: method as in ref 35663971; settings: SARS-CoV-2, Huh7, at 10 μM
[15] = tested on: influenza B virus; parameters: method as in ref 35259078; settings: FluB, MDCK
[16] = tested on: SARS-CoV-2 (HKU001a); parameters: method as in ref 35259078; settings: Vero E6
[17] = tested on: SARS-CoV-2(Delta); parameters: method as in ref 35259078; settings: Vero E6
[18] = tested on: SARS-CoV-2; parameters: method as in 3 sources; settings: SARS-CoV-2 S-mediated fusion
[19] = tested on: SARS-CoV-2; parameters: method as in 3 sources; settings: SARS-CoV-2 PsV, Huh-7
[20] = tested on: MERS-CoV
[21] = tested on: SARS-CoV; remark: listed apart in the source
[22] = tested on: HCoV-NL63
[23] = tested on: HCoV-229E
[24] = tested on: A/Roma-ISS/02/08 H1N1; settings: A/Roma-ISS/02/08 H1N1, MDCK
[25] = tested on: A/Parma0/5/06 H3N2; settings: A/Parma0/5/06 H3N2, MDCK

Question: For “DEDLEELERLYRKAEEVAKEAKDASRRGDDERAKEQMERAMRLFDQVFELAQELQEKQTDGNRQKATHLDKAVKEAADELYQRVR [DRAVPe00480]”, which IC50 [1] is on record?
Answer: The IC50 was 0.035 µM.

Question: For “ELEEQVMHVLDQVSELAHELLHKLTGEELERAAYFNWWATEMMLELIKSDDEREIREIEEEARRILEHLEELARK [DRAVPe00481]”, which IC50 [1] is on record?
Answer: The IC50 was 0.0155 µM.

Question: For FVPWFSKFlKRIL [DRAVPe00383], which IC90 [2] is on record?
Answer: Its IC90 is 10.5 µM.

Question: And the IC90 [3]?
Answer: The IC90 was 7.99 µM.

Question: What about the IC90 [4] of the same substance?
Answer: The IC90 was 12.9 µM.

Question: And the IC90 [5]?
Answer: Its IC90 is > 50 µM.

Question: And the IC90 [6]?
Answer: The IC90 was 50 µM.

Question: What about the IC90 [7] of the same substance?
Answer: Its IC90 is 16.3 µM.

Question: With FVPWFSKFlkRIL [DRAVPe00384] as the substance, how does the IC90 [2] read?
Answer: The IC90 was 12.7 µM.

Question: And the IC90 [3]?
Answer: Its IC90 is 12.5 µM.

Question: And the IC90 [4]?
Answer: The IC90 was 25.3 µM.

Question: And the IC90 [5]?
Answer: The IC90 was > 50 µM.

Question: And the IC90 [6]?
Answer: Its IC90 is 50 µM.

Question: What about the IC90 [7] of the same substance?
Answer: Its IC90 is 29.2 µM.

Question: With GYFVQDDGEWKFTGSSYYY [DRAVPe01421] as the substance, how does the IC50 [8] read?
Answer: The IC50 was 4 µM.

Question: Which EC50 ([9]; H1N1, MDCK) does the source give for KFFRKKSVKK [DRAVPe01822] here?
Answer: The EC50 was 5.2 ± 0.9 µM.

Question: And the EC50 ([10]; H3N2, MDCK)?
Answer: Its EC50 is 7.36 ± 1.2 µM.

Question: For KKKKYRNIRRPG [AVP1641], which Activity [11] is on record?
Answer: Its Activity is 45 µg/mL.

Question: Which results are given for MGRFKRFRKKFKKLFKKLS [DRAVPe01948]?
Answer: inhibition [12]: 50%; inhibition [13]: 50%; inhibition [14]: 80%

Question: Which results are given for RGAHIKGRWKSRCHRF [DRAVPe01802]?
Answer: IC50 ([9]; A(H1N1), MDCK): 3.9 µg/mL; IC50 ([10]; A(H3N2), MDCK): 1.6 µg/mL; IC50 [15]: 7.1 µg/mL; IC50 [16]: 2.9 µg/mL; IC50 [17]: 3.9 µg/mL

Question: With “SLDYINVTFLDLQDEMNRLQEAIKVLNQSYINLKDI [DRAVPe00419]” as the substance, how does the IC50 [18] read?
Answer: The IC50 was 0.0041 ± 0.001 µM.

Question: What about the IC50 [19] of the same substance?
Answer: The IC50 was 0.0828 ± 0.0221 µM.

Question: And the IC50 [20]?
Answer: The IC50 was 0.0052 µM.

Question: What about the IC50 [21] of the same substance?
Answer: The IC50 was 0.25 µM.

Question: What about the IC50 [22] of the same substance?
Answer: Its IC50 is 0.416 ± 0.228 µM.

Question: And the IC50 [23]?
Answer: The IC50 was 2.01 ± 0.698 µM.

Question: Which EC50 [24] does the source give for TNGESTADWAKN [DRAVPe01645] here?
Answer: The EC50 was 0.4 ± 2e-05 µM.

Question: And the EC50 [25]?
Answer: The EC50 was 0.01 µM.
